Assay results reported in ChEMBL document CHEMBL5316337, “Critical Role of Position 10 Residue in the Polymyxin Antimicrobial Activity” (J Med Chem, 2023).
≈ marks a conversion by molar mass, not a printed value.

Legend:
Format in all cases: functional
[1] = system: Acinetobacter baumannii; test: Antibacterial activity against Carbapenem-resistant Acinetobacter baumannii FADD1-AB030 clinical isolates assessed as reduction in bacterial growth by broth microdilution method
[2] = system: Pseudomonas aeruginosa; test: Antibacterial activity against Carbapenem-resistant Pseudomonas aeruginosa FADD1-PA001 clinical isolates assessed as reduction in bacterial growth by broth microdilution method
[3] = system: Acinetobacter baumannii; test: Antibacterial activity against polymyxin-susceptible Acinetobacter baumannii ATCC 19606 clinical isolates assessed as reduction in bacterial growth by broth microdilution method
[4] = system: Pseudomonas aeruginosa; test: Antibacterial activity against polymyxin-susceptible Pseudomonas aeruginosa FADD1-PA038 clinical isolates assessed as reduction in bacterial growth by broth microdilution method
[5] = system: Klebsiella pneumoniae; test: Antibacterial activity against polymyxin-susceptible Klebsiella pneumoniae ATCC 700721 clinical isolates assessed as reduction in bacterial growth by broth microdilution method
[6] = system: Enterobacter cloacae; test: Antibacterial activity against polymyxin-susceptible Enterobacter cloacae FADD1-EC001 clinical isolates assessed as reduction in bacterial growth by broth microdilution method
[7] = system: Pseudomonas aeruginosa; test: Antibacterial activity against polymyxin-susceptible Pseudomonas aeruginosa FADD1-PA025 clinical isolates assessed as reduction in bacterial growth by broth microdilution method
[8] = system: Klebsiella pneumoniae; test: Antibacterial activity against Carbapenem-resistant Klebsiella pneumoniae BM1 clinical isolates assessed as reduction in bacterial growth by broth microdilution method
[9] = system: Acinetobacter baumannii; test: Antibacterial activity against Carbapenem-resistant Acinetobacter baumannii FADD1-AB034 clinical isolates assessed as reduction in bacterial growth by broth microdilution method
[10] = system: Pseudomonas aeruginosa; test: Antibacterial activity against Carbapenem-resistant Pseudomonas aeruginosa FADD1-PA022 clinical isolates assessed as reduction in bacterial growth by broth microdilution method
[11] = system: Enterobacter cloacae; test: Antibacterial activity against polymyxin-susceptible Enterobacter cloacae FADD1-EC003 clinical isolates assessed as reduction in bacterial growth by broth microdilution method
[12] = system: Klebsiella pneumoniae; test: Antibacterial activity against Carbapenem-resistant Klebsiella pneumoniae FADD1-KP022 clinical isolates assessed as reduction in bacterial growth by broth microdilution method
[13] = system: Klebsiella pneumoniae; test: Antibacterial activity against Carbapenem-resistant Klebsiella pneumoniae FADD1-KP065 clinical isolates assessed as reduction in bacterial growth by broth microdilution method
[14] = system: Enterobacter cloacae; test: Antibacterial activity against polymyxin-susceptible Enterobacter cloacae FADD1-EC006 clinical isolates assessed as reduction in bacterial growth by broth microdilution method
[15] = system: Acinetobacter baumannii; test: Antibacterial activity against polymyxin-susceptible Acinetobacter baumannii ATCC 17978 clinical isolates assessed as reduction in bacterial growth by broth microdilution method
[16] = system: Pseudomonas aeruginosa; test: Antibacterial activity against polymyxin-susceptible Pseudomonas aeruginosa ATCC 27853 clinical isolates assessed as reduction in bacterial growth by broth microdilution method
[17] = system: Klebsiella pneumoniae; test: Antibacterial activity against Carbapenem-resistant Klebsiella pneumoniae FADD1-KP032 clinical isolates assessed as reduction in bacterial growth by broth microdilution method

SMILES | MIC [1] [µg/mL] | MIC [2] [µg/mL] | MIC [3] [µg/mL] | MIC [4] [µg/mL] | MIC [5] [µg/mL] | MIC [6] [µg/mL] | MIC [7] [µg/mL] | MIC [8] [µg/mL] | MIC [9] [µg/mL] | MIC [10] [µg/mL] | MIC [11] [µg/mL] | MIC [12] [µg/mL] | MIC [13] [µg/mL] | MIC [14] [µg/mL] | MIC [15] [µg/mL] | MIC [16] [µg/mL] | MIC [17] [µg/mL]
CC[C@H](C)CCCCC(=O)N[C@@H](CCN)C(=O)N[C@H](C(=O)N[C@@H](CCN)C(=O)N[C@H]1CCNC(=O)[C@H](Cc2c[nH]c3ccccc23)NC(=O)[C@H](CCN)NC(=O)[C@H](CCN)NC(=O)[C@H](CC(C)C)NC(=O)[C@@H](Cc2ccccc2)NC(=O)[C@H](CCN)NC1=O)[C@@H](C)O | 2 (≈ 1.55 µM) | 4 (≈ 3.1 µM) | 2 (≈ 1.55 µM) | 4 (≈ 3.1 µM) | 8 (≈ 6.21 µM) | 8 (≈ 6.21 µM) | 2 (≈ 1.55 µM) | 4 (≈ 3.1 µM) | 4 (≈ 3.1 µM) | 2 (≈ 1.55 µM) | 8 (≈ 6.21 µM) | 1 (≈ 0.776 µM) | 2 (≈ 1.55 µM) | 4 (≈ 3.1 µM) | 4 (≈ 3.1 µM) | 2 (≈ 1.55 µM) | 4 (≈ 3.1 µM)
CC[C@H](C)CCCCC(=O)N[C@@H](CCN)C(=O)N[C@H](C(=O)N[C@@H](CCN)C(=O)N[C@H]1CCNC(=O)[C@H](CCCCN)NC(=O)[C@H](CCN)NC(=O)[C@H](CCN)NC(=O)[C@H](CC(C)C)NC(=O)[C@@H](Cc2ccccc2)NC(=O)[C@H](CCN)NC1=O)[C@@H](C)O | 32 (≈ 26 µM) | > 32 | 32 (≈ 26 µM) | > 32 | > 32 | 32 (≈ 26 µM) | > 32 | > 32 | 8 (≈ 6.5 µM) | 1 (≈ 0.813 µM) | 16 (≈ 13 µM) | 2 (≈ 1.63 µM) | 4 (≈ 3.25 µM) | 32 (≈ 26 µM) | 8 (≈ 6.5 µM) | > 32 | 32 (≈ 26 µM)
CC[C@H](C)CCCCC(=O)N[C@@H](CCN)C(=O)N[C@H](C(=O)N[C@@H](CCN)C(=O)N[C@H]1CCNC(=O)[C@H](CC(=O)O)NC(=O)[C@H](CCN)NC(=O)[C@H](CCN)NC(=O)[C@H](CC(C)C)NC(=O)[C@@H](Cc2ccccc2)NC(=O)[C@H](CCN)NC1=O)[C@@H](C)O | > 32 | > 32 | > 32 | > 32 | > 32 | > 32 | > 32 | 32 (≈ 26.3 µM) | > 32 | 8 (≈ 6.57 µM) | > 32 | 16 (≈ 13.1 µM) | 16 (≈ 13.1 µM) | > 32 | > 32 | > 32 | 32 (≈ 26.3 µM)
CC[C@H](C)CCCCC(=O)N[C@@H](CCN)C(=O)N[C@H](C(=O)N[C@@H](CCN)C(=O)N[C@H]1CCNC(=O)[C@H](CCSC)NC(=O)[C@H](CCN)NC(=O)[C@H](CCN)NC(=O)[C@H](CC(C)C)NC(=O)[C@@H](Cc2ccccc2)NC(=O)[C@H](CCN)NC1=O)[C@@H](C)O | 2 (≈ 1.62 µM) | 2 (≈ 1.62 µM) | 4 (≈ 3.24 µM) | 2 (≈ 1.62 µM) | 4 (≈ 3.24 µM) | 8 (≈ 6.49 µM) | 2 (≈ 1.62 µM) | 2 (≈ 1.62 µM) | 4 (≈ 3.24 µM) | 1 (≈ 0.811 µM) | 4 (≈ 3.24 µM) | 1 (≈ 0.811 µM) | 1 (≈ 0.811 µM) | 16 (≈ 13 µM) | 4 (≈ 3.24 µM) | 1 (≈ 0.811 µM) | 2 (≈ 1.62 µM)
CC[C@H](C)CCCCC(=O)N[C@@H](CCN)C(=O)N[C@H](C(=O)N[C@@H](CCN)C(=O)N[C@H]1CCNC(=O)[C@H](Cc2ccc(O)cc2)NC(=O)[C@H](CCN)NC(=O)[C@H](CCN)NC(=O)[C@H](CC(C)C)NC(=O)[C@@H](Cc2ccccc2)NC(=O)[C@H](CCN)NC1=O)[C@@H](C)O | 4 (≈ 3.16 µM) | 4 (≈ 3.16 µM) | 2 (≈ 1.58 µM) | 8 (≈ 6.32 µM) | 8 (≈ 6.32 µM) | 16 (≈ 12.6 µM) | 2 (≈ 1.58 µM) | 1 (≈ 0.79 µM) | 2 (≈ 1.58 µM) | 1 (≈ 0.79 µM) | 8 (≈ 6.32 µM) | 0.5 (≈ 0.395 µM) | 4 (≈ 3.16 µM) | 16 (≈ 12.6 µM) | 2 (≈ 1.58 µM) | 2 (≈ 1.58 µM) | 4 (≈ 3.16 µM)
CC[C@H](C)CCCCC(=O)N[C@@H](CCN)C(=O)N[C@H](C(=O)N[C@@H](CCN)C(=O)N[C@H]1CCNC(=O)[C@H](CCC(=O)O)NC(=O)[C@H](CCN)NC(=O)[C@H](CCN)NC(=O)[C@H](CC(C)C)NC(=O)[C@@H](Cc2ccccc2)NC(=O)[C@H](CCN)NC1=O)[C@@H](C)O | > 32 | > 32 | > 32 | > 32 | > 32 | > 32 | > 32 | > 32 | > 32 | > 32 | > 32 | 32 (≈ 26 µM) | > 32 | > 32 | > 32 | > 32 | > 32
CC[C@H](C)CCCCC(=O)N[C@@H](CCN)C(=O)N[C@H](C(=O)N[C@@H](CCN)C(=O)N[C@H]1CCNC(=O)[C@H](CCN)NC(=O)[C@H](CCN)NC(=O)[C@H](CCN)NC(=O)[C@H](CC(C)C)NC(=O)[C@@H](Cc2ccccc2)NC(=O)[C@H](CCN)NC1=O)[C@@H](C)O | 8 (≈ 6.65 µM) | > 32 | 16 (≈ 13.3 µM) | > 32 | > 32 | > 32 | > 32 | > 32 | 16 (≈ 13.3 µM) | > 32 | > 32 | 2 (≈ 1.66 µM) | 4 (≈ 3.33 µM) | > 32 | 16 (≈ 13.3 µM) | > 32 | 32 (≈ 26.6 µM)
CC[C@H](C)CCCCC(=O)N[C@@H](CCN)C(=O)N[C@H](C(=O)N[C@@H](CCN)C(=O)N[C@H]1CCNC(=O)[C@H](CCCNC(=N)N)NC(=O)[C@H](CCN)NC(=O)[C@H](CCN)NC(=O)[C@H](CC(C)C)NC(=O)[C@@H](Cc2ccccc2)NC(=O)[C@H](CCN)NC1=O)[C@@H](C)O | 8 (≈ 6.36 µM) | > 32 | 8 (≈ 6.36 µM) | > 32 | 32 (≈ 25.4 µM) | 32 (≈ 25.4 µM) | 8 (≈ 6.36 µM) | > 32 | 4 (≈ 3.18 µM) | 1 (≈ 0.795 µM) | 16 (≈ 12.7 µM) | 2 (≈ 1.59 µM) | 4 (≈ 3.18 µM) | 32 (≈ 25.4 µM) | 4 (≈ 3.18 µM) | 4 (≈ 3.18 µM) | 32 (≈ 25.4 µM)
CC[C@H](C)CCCCC(=O)N[C@@H](CCN)C(=O)N[C@H](C(=O)N[C@@H](CCN)C(=O)N[C@H]1CCNC(=O)[C@H](CCCN)NC(=O)[C@H](CCN)NC(=O)[C@H](CCN)NC(=O)[C@H](CC(C)C)NC(=O)[C@@H](Cc2ccccc2)NC(=O)[C@H](CCN)NC1=O)[C@@H](C)O | 16 (≈ 13.2 µM) | > 32 | 16 (≈ 13.2 µM) | > 32 | 32 (≈ 26.3 µM) | 32 (≈ 26.3 µM) | > 32 | > 32 | 8 (≈ 6.58 µM) | > 32 | 32 (≈ 26.3 µM) | 4 (≈ 3.29 µM) | 4 (≈ 3.29 µM) | > 32 | 4 (≈ 3.29 µM) | > 32 | 32 (≈ 26.3 µM)
CC[C@H](C)CCCCC(=O)N[C@@H](CCN)C(=O)N[C@H](C(=O)N[C@@H](CCN)C(=O)N[C@H]1CCNC(=O)[C@H](CN)NC(=O)[C@H](CCN)NC(=O)[C@H](CCN)NC(=O)[C@H](CC(C)C)NC(=O)[C@@H](Cc2ccccc2)NC(=O)[C@H](CCN)NC1=O)[C@@H](C)O | 2 (≈ 1.68 µM) | 2 (≈ 1.68 µM) | 2 (≈ 1.68 µM) | 4 (≈ 3.37 µM) | > 32 | 2 (≈ 1.68 µM) | 2 (≈ 1.68 µM) | 4 (≈ 3.37 µM) | 1 (≈ 0.841 µM) | 0.5 (≈ 0.421 µM) | 4 (≈ 3.37 µM) | 1 (≈ 0.841 µM) | 1 (≈ 0.841 µM) | 16 (≈ 13.5 µM) | 1 (≈ 0.841 µM) | 4 (≈ 3.37 µM) | 2 (≈ 1.68 µM)
CC[C@H](C)CCCCC(=O)N[C@@H](CCN)C(=O)N[C@H](C(=O)N[C@@H](CCN)C(=O)N[C@H]1CCNC(=O)[C@H](Cc2c[nH]cn2)NC(=O)[C@H](CCN)NC(=O)[C@H](CCN)NC(=O)[C@H](CC(C)C)NC(=O)[C@@H](Cc2ccccc2)NC(=O)[C@H](CCN)NC1=O)[C@@H](C)O | > 32 | 32 (≈ 25.8 µM) | 16 (≈ 12.9 µM) | 16 (≈ 12.9 µM) | 32 (≈ 25.8 µM) | 32 (≈ 25.8 µM) | 8 (≈ 6.45 µM) | > 32 | 16 (≈ 12.9 µM) | 1 (≈ 0.807 µM) | 16 (≈ 12.9 µM) | 8 (≈ 6.45 µM) | 16 (≈ 12.9 µM) | > 32 | 4 (≈ 3.23 µM) | 8 (≈ 6.45 µM) | 16 (≈ 12.9 µM)
CC[C@H](C)CCCCC(=O)N[C@@H](CCN)C(=O)N[C@H](C(=O)N[C@@H](CCN)C(=O)N[C@H]1CCNC(=O)[C@H](Cc2ccccc2)NC(=O)[C@H](CCN)NC(=O)[C@H](CCN)NC(=O)[C@H](CC(C)C)NC(=O)[C@@H](Cc2ccccc2)NC(=O)[C@H](CCN)NC1=O)[C@@H](C)O | 0.5 (≈ 0.4 µM) | 1 (≈ 0.8 µM) | 2 (≈ 1.6 µM) | 4 (≈ 3.2 µM) | 2 (≈ 1.6 µM) | 4 (≈ 3.2 µM) | 2 (≈ 1.6 µM) | 2 (≈ 1.6 µM) | 2 (≈ 1.6 µM) | 1 (≈ 0.8 µM) | 4 (≈ 3.2 µM) | 1 (≈ 0.8 µM) | 1 (≈ 0.8 µM) | 4 (≈ 3.2 µM) | 2 (≈ 1.6 µM) | 1 (≈ 0.8 µM) | 1 (≈ 0.8 µM)
